# Measured values published in patent publication US20120107317A1, “USE OF CYTOPLASMIC C-MYC FOR REGULATING IMMUNE RESPONSES” (priority 2010, published 2012).
# Where two headings read alike, the source gives them in different places.
# Tests used:
# [1] = test system: BCG-induced c-Myc mRNA expression; format: cell-based, human; conditions: then BCG (M.O.I.=1) 3 hours, vs DMSO
# c-Myc [2] = conditions: cited from earlier work
# [3] = biological target: T1, c-Myc (endogenous protein of primary human blood macrophages) (human, UniProt P01106 16-454); test: co-immunoprecipitation with anti-c-Myc antibody from PBMac lysates, Western blot
# T1 construct: Endogenous c-Myc in lysates of primary human blood macrophages (PBMac), with or without BCG treatment; also called cytoplasmic c-Myc
# T1 sequence (P01106 16-454 limits assumed): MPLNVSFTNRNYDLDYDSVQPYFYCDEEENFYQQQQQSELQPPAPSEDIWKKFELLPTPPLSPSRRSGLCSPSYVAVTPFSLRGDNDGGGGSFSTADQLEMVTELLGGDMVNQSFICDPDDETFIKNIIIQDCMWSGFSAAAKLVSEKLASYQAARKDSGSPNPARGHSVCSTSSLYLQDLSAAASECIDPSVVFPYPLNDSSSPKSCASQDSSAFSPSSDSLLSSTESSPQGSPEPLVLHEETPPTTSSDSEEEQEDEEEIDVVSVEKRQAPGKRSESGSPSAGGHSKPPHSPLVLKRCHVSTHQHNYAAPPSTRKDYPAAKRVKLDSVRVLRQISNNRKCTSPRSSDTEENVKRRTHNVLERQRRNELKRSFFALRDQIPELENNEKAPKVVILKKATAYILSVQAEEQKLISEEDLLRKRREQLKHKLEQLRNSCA
# Method: Total proteins (200 μg) were extracted from PBMac by IP buffer (10 mM Tris [pH7.4], 1 mM EDTA, 1 mM EGTA, 150 mM NaCl, 0.5% NP-40, 1% Triton X-100, inhibitor cocktails of proteases and phosphatases), and were incubated with 1μg primary antibodies against IκBα(Santa Cruz Biotechnology, USA) or c-Myc (Millipore, USA) for 2 hours at 4° C. and then with 20 μl Protein A/G agarose beads (Santa Cruz Biotechnology, USA) for 1 hour at 4° C. The immunoprecipitates were then washed 6 times with IP buffer. Cytoplasmic and nuclear proteins were extracted from PBMac as previously described (Cheung et al., 2005; Lee et al., 2005). Immunoprecipitated, cytoplasmic (50 μg) or nuclear proteins (10 μg) were analyzed by Western Blot as in our previous reports (Cheung et al., 2005; Lee et al., 2005).
# c-Myc [4] = test: Induction of c-Myc expression by HIV-1 Tat in primary human blood macrophages (RT-PCR, Western blot); format: cell-based; conditions: Tat 2, 4 or 6 hours (mRNA); 20 or 100 ng/ml 24 hours (protein)
# Method: Briefly, PBMac were treated with or without Tat ([…]) for indicated time points (2, 4 or 6 hours). Total RNA was extracted for analyzing c-Myc mRNA expression levels by quantitative RT-PCR. In addition, PBMac were treated with HIV-1 Tat (20 or 100 ng/ml) for 24 hours. Cellular proteins were extracted for Western blot analyses to determine protein levels of c-Myc and actin. The level of actin was measured as a control of the amount of proteins loaded.
# [5] = 10 μM inhibitor 1 hour pretreatment
molecule,measurement,setting,value
O=C(/C=C/c1ccc(O)c(O)c1)OCCc1ccccc1 [CAPE],level of BCG-induced c-Myc mRNA expression,[1]; 15 μg/ml inhibitor 1 hour pretreatment,did not affect
C[n+]1ccc(-c2c3nc(c(-c4cc[n+](C)cc4)c4ccc([nH]4)c(-c4cc[n+](C)cc4)c4ccc([nH]4)c(-c4cc[n+](C)cc4)c4nc2C=C4)C=C3)cc1 [Cationic Porphyrin TMPyP4],expression and activity of c-Myc,c-Myc [2],inhibit both the expression and activity of c-Myc
COc1cccc(-c2cc(=O)c3ccccc3o2)c1N [PD98059],level of BCG-induced c-Myc mRNA expression,[1]; [5],significantly reduced
C[S+]([O-])c1ccc(-c2nc(-c3ccncc3)c(-c3ccc(F)cc3)[nH]2)cc1 (stereo not shown) [SB203580],level of BCG-induced c-Myc mRNA expression,[1]; [5],did not affect
O=C1c2ccccc2-c2n[nH]c3cccc1c23 [SP600159],level of BCG-induced c-Myc mRNA expression,[1]; [5],significantly reduced
"ERK1 (member of ERK1/2, endogenous protein of primary human blood macrophages) (enzyme, UniProt P27361 2-379, looked up, It is split here into its two members) AAAAAQGGGGGEPRRTEGVGPGVPGEVEMVKGQPFDVGPRYTQLQYIGEGAYGMVSSAYDHVRKTRVAIKKISPFEHQTYCQRTLREIQILLRFRHENVIGIRDILRASTLEAMRDVYIVQDLMETDLYKLLKSQQLSNDHICYFLYQILRGLKYIHSANVLHRDLKPSNLLINTTCDLKICDFGLARIADPEHDHTGFLTEYVATRWYRAPEIMLNSKGYTKSIDIWSVGCILAEMLSNRPIFPGKHYLDQLNHILGILGSPSQEDLNCIINMKARNYLQSLPSKTKVAWAKLFPKSDSKALDLLDRMLTFNPNKRITVEEALAHPYLEQYYDPTDEPVAEEPFTFAMELDDLPKERLKELIFQETARFQPGVLEAP",binding result,[3],no binding
"HIV-1 Tat: HIV-1 Tat protein used to treat primary human blood macrophages (protein, UniProt P04608 1-86, looked up) Protein Tat: MEPVDPRLEPWKHPGSQPKTACTNCYCKKCCFHCQVCFITKALGISYGRKKRRQRRRAHQNSQTHQASLSKQPTSQPRGDPTGPKE",c-Myc expression (mRNA and protein),c-Myc [4],induces c-Myc expression
